Laboratory results published in patent US11278526B2, “Compounds and methods for treating lupus” (RECEPTOS LLC, priority 2016, dated 2022).
Like-named read-outs stand apart in the source and are kept apart here.

Experiments:
[1] = NZBWF1 mice, cyclophosphamide IP once a week
Method: Compound 148 was tested for efficacy in an art-accepted mouse model for SLE: NZB×NZW F1 (“NZBWF1”) mice develop an autoimmune disease closely resembling SLE. These mice spontaneously produce high levels of anti-dsDNA antibodies, an indicator of SLE, starting after 20 weeks of age. These mice develop hemolytic anemia, proteinuria, and progressive glomerulonephritis mediated by immune complex deposition in the glomerular basement membrane.
Six groups of NZBWF1 mice (Jackson Laboratories, stock #100008) were used in the study and were acclimated to the research facility for 7 weeks prior to the start of the study. Weekly measurements of proteinuria (excess serum proteins present in the urine) and body weight began at 20 weeks of age. At 23 weeks of age, the mice were assigned to groups in a balanced manner in order to achieve average body weight and average proteinuria measurements across the groups. […]
The three groups dosed with compound 148 received 0.3, 1.0, and 3.0 mg/kg PO QD, respectively (20 mice per dosage). […] Disease development was evaluated as disclosed in the following examples. […]
The three groups dosed with compound 5 received 0.3, 1.0, and 3.0 mg/kg PO QD, respectively (20 mice per dosage). […] Disease development was evaluated as disclosed in the following examples.

NZBWF1 mice [2] = assay: Survival in NZBWF1 SLE mouse model; type: in vivo; details: cyclophosphamide 50 mg/kg IP once a week (compound 5 study), Logrank p=0.0017
Method: As in Example 2, compound 5 was tested for efficacy in the same NZB×NZW F1 (“NZBWF1”) mouse model for SLE as compound 148. Six groups of NZBWF1 mice (Jackson Laboratories, stock #100008) were used in the study and were acclimated to the research facility for 6 weeks prior to the start of the study. Weekly measurements of proteinuria (excess serum proteins present in the urine) and body weight began at 20 weeks of age. At 22 weeks of age, the mice were assigned to groups in a balanced manner in order to achieve average body weight and average proteinuria measurements across the groups. One “naive” group consisting of 10 mice was euthanized at the start of treatment and used as a source of tissue for analysis. Treatment began at 22 weeks of age.
The five treatment groups were administered cyclophosphamide (positive control, 20 mice; introduced gradually to reduce toxicity (IP, once a week, 10 mg/kg at Weeks 22 and 23 and 50 mg/kg from Week 24 to the end of the study)), vehicle (negative control, 20 mice), or compound 5 (three groups of 20 mice), beginning at 22 weeks of age and observed over the course of 20 weeks. The three groups dosed with compound 5 received 0.3, 1.0, and 3.0 mg/kg PO QD, respectively (20 mice per dosage). Surviving animals were sacrificed at 42 weeks. […] Disease development was evaluated as disclosed in the following examples.

NZBWF1 mice [3] = assay: Proteinuria scores (urine dip sticks) in NZBWF1 SLE mouse model; type: in vivo
Text: Six groups of NZBWF1 mice (Jackson Laboratories, stock #100008) were used in the study and were acclimated to the research facility for 7 weeks prior to the start of the study. Weekly measurements of proteinuria (excess serum proteins present in the urine) and body weight began at 20 weeks of age. At 23 weeks of age, the mice were assigned to groups in a balanced manner in order to achieve average body weight and average proteinuria measurements across the groups. One “naive” group consisting of 10 mice was euthanized at the start of treatment and used as a source of tissue for analysis. Treatment began at 23 weeks of age.
The three groups dosed with compound 148 received 0.3, 1.0, and 3.0 mg/kg PO QD, respectively (20 mice per dosage). Surviving animals were sacrificed at 42 weeks. […] Disease development was evaluated as disclosed in the following examples.
High levels of proteinuria are a strong indicator of SLE. […] Proteinuria was expressed as a score from 0 to 4 (0=no protein; 1=traces of protein (<30 mg/dL); 2=30-100 mg/dL; 3=100-500 mg/dL; 4=>500 mg/dL).
As in Example 3, proteinuria was measured weekly beginning at 20 weeks using urine dip sticks (Roche Diagnostics Chemstrip 2GP, cat. no. 11895397160, per manufacturer's protocol). Proteinuria was expressed as a score from 0 to 4 (0=no protein; 1=traces of protein (<30 mg/dL); 2=30-100 mg/dL; 3=100-500 mg/dL; 4=>500 mg/dL). […] (In this and the following experiments, the number of mice per group was approximately 20, and statistics were determined by one-way ANOVA with Dunnett's comparison.)

NZBWF1 mice [4] = assay: Serum blood urea nitrogen (BUN) at termination; type: in vivo
Method: Lymphocyte counts were measured from whole blood taken at 23, 31, and 36.5 weeks using flow cytometry. Cells were gated for CD4+ T cells, CD8+ T cells, and CD19+ B cells. […] Serum blood urea nitrogen (BUN) was also measured at termination to assess kidney function.
As in Example 4, serum blood urea nitrogen (BUN) was measured at termination to assess kidney function.

splenocytes = assay: Splenocyte counts and immunophenotyping of spleen cell subtypes; type: in vivo, mice; details: mouse, in vivo
Method: To determine the effects of compound 148 on inflammatory infiltrate in the spleen, spleens were weighed at 42 weeks. […] Splenocyte suspensions were then prepared. RBCs were lysed and splenocytes were counted.
Plasmacytoid dendritic cells (pDC) express IFNAR1 (Interferon alpha receptor 1), which amplifies the proinflammatory response to type 1 interferons (e.g., IFNα) that are associated with lupus. IFNAR activity is considered to be an important modulator of signal strength and duration in pDC and subsequent activation of T and B cells in the inflammatory response. pDC counts were measured at termination.
To determine the effects of compound 5 on inflammatory infiltrate in the spleen, spleens were weighed at 42 weeks. […] Splenocyte suspensions were prepared for all three doses. RBCs were lysed and splenocytes were counted.

NZBWF1 mice [5] = assay: Kidney weight at termination (42 weeks); type: in vivo
Text: In SLE, inflammatory infiltrates known as Tertiary Lymphatic Tissue (TLT) accumulate in the kidney and spleen, among other tissues. As an indirect measure of disease progression, right and left kidneys were weighed (FIGS. 4A-4B) following termination at 42 weeks.
As in Example 5, left kidneys were weighed (FIG. 43) following termination at 42 weeks.

[6] = cyclophosphamide 50 mg/kg IP once a week (compound 5 study)
[7] = cyclophosphamide 50 mg/kg IP once a week (compound 148 study), p<0.05

## O=P1(N(CCCl)CCCl)NCCCO1 (stereo not shown) [cyclophosphamide, reference compound]
[1]; 50 mg/kg from week 24 (compound 5 study)
  Body weight: increased body weights
[1]; 50 mg/kg from week 25 (compound 148 study)
  Body weight: increased body weights
NZBWF1 mice [2]
  Survival compared to vehicle: improved survival compared to vehicle treated animals
NZBWF1 mice [3]; [6]
  Proteinuria scores relative to vehicle: significant improvement relative to vehicle
NZBWF1 mice [3]; [7]
  Proteinuria scores relative to vehicle: significant improvement relative to vehicle
NZBWF1 mice [4]; [6]
  Serum BUN at termination vs vehicle: significant reduction in serum BUN
NZBWF1 mice [4]; [7]
  Serum BUN at termination vs vehicle: significant reduction in serum BUN
splenocytes
  Decrease of splenic pDC counts relative to vehicle: 47%
  Percent Reduction vs Vehicle: Activated CD4 + T cells: 89%
  Percent Reduction vs Vehicle: CD4 + T cells: 77%
  Percent Reduction vs Vehicle: CD8 + T cells: 48%
  Percent Reduction vs Vehicle: CD11b + Ly6C^hi monocytes: 25%
  Percent Reduction vs Vehicle: CD19 + B cells: 91%
  Percent Reduction vs Vehicle: Follicular B cells: 93%
  Percent Reduction vs Vehicle: Germinal Center B cells: 99%
  Percent Reduction vs Vehicle: Marginal Zone B cells: 57%
  Percent Reduction vs Vehicle: Marginal Zone Progenitor B cells: 78%
  Percent Reduction vs Vehicle: Naive CD4 + T cells: 45%
  Percent Reduction vs Vehicle: Plasma cells: 90%
  Percent Reduction vs Vehicle: Tfh cells: 97%
  Percent Reduction vs Vehicle: Total splenocytes: 73%
  Percent Reduction vs Vehicle: Treg cells: 80%
  Percent Reduction vs Vehicle: pDC: 64%
  Reduction in splenic CD4+ T cell population: 84%
  Reduction in splenic CD8+ T cell population: 46%
  Reduction in splenic CD19+ B cell population: 92%
  Reduction in splenic Follicular (FO) B cells: 96%
  Reduction in splenic Germinal Center (GC) B cell population: 99%
  Reduction in splenic Marginal Zone (MZ) B cell population: 74%
  Reduction in splenic activated CD4+ T cell population: 93%
  Reduction in splenic naïve CD4+ T cells: 47%
  Reduction in splenic plasma cell population: 18%
NZBWF1 mice [5]; [6]
  Left kidney weight relative to vehicle: significantly reduced kidney weight relative to vehicle
NZBWF1 mice [5]; [7]
  Kidney weight relative to vehicle: significantly reduced kidney weight relative to vehicle
